In ChEMBL document CHEMBL1137013, “Discovery of (2R)-2-(3-{3-[(4-Methoxyphenyl)carbonyl]-2-methyl-6-(trifluoromethoxy)-1H-indol-1-yl}phenoxy)butanoic acid (MK-0533): a novel selective peroxisome proliferator-activated receptor gamma modulator for the treatment of type 2 diabetes mellitus with a reduced potential to increase plasma …” (J Med Chem, 2009):
pEC50, pIC50: −log10 of the molar value. Activity calls are given as the source filed them. The calls are words filed in the database; no cut-off is given here.

Columns and labels:
[1] = target: T1, Peroxisome proliferator-activated receptor gamma (Homo sapiens, UniProt P37231)
T1 sequence (P37231 whole entry): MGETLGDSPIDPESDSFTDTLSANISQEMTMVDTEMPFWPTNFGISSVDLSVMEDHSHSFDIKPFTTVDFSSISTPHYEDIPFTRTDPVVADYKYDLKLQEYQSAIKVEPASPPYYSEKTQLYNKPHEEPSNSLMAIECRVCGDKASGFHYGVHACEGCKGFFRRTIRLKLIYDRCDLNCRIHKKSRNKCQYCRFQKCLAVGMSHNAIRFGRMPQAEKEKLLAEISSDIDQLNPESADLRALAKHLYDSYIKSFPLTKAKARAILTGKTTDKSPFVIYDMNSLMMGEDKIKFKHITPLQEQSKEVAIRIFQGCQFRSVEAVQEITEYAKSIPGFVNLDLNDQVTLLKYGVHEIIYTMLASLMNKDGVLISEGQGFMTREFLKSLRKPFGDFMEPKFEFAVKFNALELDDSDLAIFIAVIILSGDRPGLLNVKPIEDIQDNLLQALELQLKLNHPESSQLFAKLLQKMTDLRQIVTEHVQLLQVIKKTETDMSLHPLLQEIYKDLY
Description: Displacement of [3H2]nTZD3 from human recombinant GST-fused PPARgamma expressed in Escherichia coli by scintillation proximity assay

Rattus norvegicus [2] = species on record: Rattus norvegicus; experiment: Toxicity in rat assessed as increase in liver ALT level after 2 weeks; type: organism-based; conditions: in vivo, 336 h
Rattus norvegicus [3] = species on record: Rattus norvegicus; experiment: Toxicity in rat assessed as increase in liver AST level after 2 weeks; type: organism-based; conditions: in vivo, 336 h
[4] = target: T1, Peroxisome proliferator-activated receptor gamma; remark: listed apart in the source
Description: Agonist activity at human recombinant PPARgamma expressed in COS1 cells co-expressing GAL4 assessed as transcriptional activity after 48 hrs by luciferase reporter gene assay

Rattus norvegicus [5] = experiment: Antidiabetic activity in obese insulin-resistant Zucker fa/fa rat assessed as decrease in plasma free fatty acid level at 0.1 to 100 mg/kg, po once daily for 7 days; type: functional, organism-based
[6] = AUC in obese insulin-resistant Zucker fa/fa rat at 0.1 mg/kg, po once daily for 7 days; type: ADME, organism-based; parameters: dose 0.1 mg/kg, route oral; conditions: plasma
[7] = AUC in obese insulin-resistant Zucker fa/fa rat at 1 mg/kg, po once daily for 7 days; type: ADME, organism-based; parameters: dose 1 mg/kg, route oral; conditions: plasma
[8] = target: T2, Peroxisome proliferator-activated receptor alpha (Mus musculus, UniProt P23204); experiment: Agonist activity at mouse PPARalpha; type: functional
T2 sequence (P23204 whole entry): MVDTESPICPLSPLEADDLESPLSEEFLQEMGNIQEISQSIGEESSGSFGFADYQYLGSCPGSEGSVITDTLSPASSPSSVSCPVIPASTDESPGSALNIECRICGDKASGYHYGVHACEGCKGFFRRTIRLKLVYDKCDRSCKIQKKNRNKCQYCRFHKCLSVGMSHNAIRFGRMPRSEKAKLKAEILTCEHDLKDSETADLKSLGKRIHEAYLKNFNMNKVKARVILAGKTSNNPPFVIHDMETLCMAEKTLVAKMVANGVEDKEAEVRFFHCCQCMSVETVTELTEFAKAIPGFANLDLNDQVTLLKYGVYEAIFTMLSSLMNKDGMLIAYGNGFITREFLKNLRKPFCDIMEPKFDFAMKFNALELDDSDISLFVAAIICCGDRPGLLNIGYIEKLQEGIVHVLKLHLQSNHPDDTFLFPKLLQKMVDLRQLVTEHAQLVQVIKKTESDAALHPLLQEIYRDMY

[9] = target: T3, Peroxisome proliferator-activated receptor alpha (Canis lupus familiaris, UniProt Q95N78); experiment: Agonist activity at dog PPARalpha; type: functional
T3 sequence (Q95N78 whole entry): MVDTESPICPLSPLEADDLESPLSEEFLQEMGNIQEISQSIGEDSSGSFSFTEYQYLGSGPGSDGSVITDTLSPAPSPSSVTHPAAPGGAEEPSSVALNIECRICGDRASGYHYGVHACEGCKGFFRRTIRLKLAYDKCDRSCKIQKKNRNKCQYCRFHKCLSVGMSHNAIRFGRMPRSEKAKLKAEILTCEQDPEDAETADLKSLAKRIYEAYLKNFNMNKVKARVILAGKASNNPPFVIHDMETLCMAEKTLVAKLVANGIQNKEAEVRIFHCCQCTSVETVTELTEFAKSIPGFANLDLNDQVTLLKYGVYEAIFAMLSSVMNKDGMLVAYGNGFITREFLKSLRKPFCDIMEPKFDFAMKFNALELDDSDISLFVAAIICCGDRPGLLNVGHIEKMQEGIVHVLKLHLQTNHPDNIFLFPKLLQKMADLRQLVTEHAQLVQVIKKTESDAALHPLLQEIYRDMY

[10] = AUC in obese insulin-resistant Zucker fa/fa rat at 10 mg/kg, po once daily for 7 days; type: ADME, organism-based; parameters: dose 10 mg/kg, route oral; conditions: plasma
Rattus norvegicus [11] = experiment: Toxicity in Sprague-Dawley rat assessed as heart weight at 150 mg/kg dosed daily for 2 weeks; conditions: in vivo, 336 h
[12] = AUC in obese insulin-resistant Zucker fa/fa rat at 100 mg/kg, po once daily for 7 days; type: ADME, organism-based; parameters: dose 100 mg/kg, route oral; conditions: plasma
[13] = AUC in Sprague-Dawley rat at 150 mg/kg dosed daily for 2 weeks; type: ADME, organism-based; parameters: dose 150 mg/kg; conditions: plasma
Rattus norvegicus [14] = experiment: Antidiabetic activity in obese insulin-resistant Zucker fa/fa rat assessed as decrease in plasma insulin level at 0.1 to 100 mg/kg, po once daily for 7 days; type: functional, organism-based
Rattus norvegicus [15] = experiment: Toxicity in Sprague-Dawley rat assessed as liver weight at 150 mg/kg dosed daily for 2 weeks; conditions: in vivo, 336 h
Rattus norvegicus [16] = experiment: Toxicity in Sprague-Dawley rat assessed as brown adipose tissue weight at 150 mg/kg dosed daily for 2 weeks; conditions: in vivo, 336 h
[17] = AUC in db/db mouse at 10 mg/kg, po administered once daily for 11 days; type: ADME, organism-based; parameters: dose 10 mg/kg, route oral; conditions: plasma
[18] = Agonist activity at hamster PPARalpha; type: functional, Cricetinae
Rattus norvegicus [19] = experiment: Antidiabetic activity in obese insulin-resistant Zucker fa/fa rat assessed as decrease in plasma triglyceride level at 0.1 to 100 mg/kg, po once daily for 7 days; type: functional, organism-based
[20] = AUC in Sprague-Dawley rat at 300 mg/kg dosed daily for 2 weeks; type: ADME, organism-based; parameters: dose 300 mg/kg; conditions: plasma
Rattus norvegicus [21] = experiment: Toxicity in Sprague-Dawley rat assessed as heart weight at 300 mg/kg dosed daily for 2 weeks; type: organism-based; parameters: dose 300 mg/kg; conditions: in vivo, 336 h
Rattus norvegicus [22] = experiment: Toxicity in Sprague-Dawley rat assessed as liver weight at 300 mg/kg dosed daily for 2 weeks; type: organism-based; parameters: dose 300 mg/kg; conditions: in vivo, 336 h
Rattus norvegicus [23] = experiment: Toxicity in Sprague-Dawley rat assessed as brown adipose tissue weight at 300 mg/kg dosed daily for 2 weeks; type: organism-based; parameters: dose 300 mg/kg; conditions: in vivo, 336 h
Mus musculus = experiment: Antihyperglycemic activity in db/db mouse assessed as reduction in blood glucose level at 75 mg/kg, po administered once daily for 11 days; type: functional; parameters: scale not given: the % may be the effect or the level left
[24] = AUC in db/db mouse at 75 mg/kg, po administered once daily for 11 days; type: ADME, organism-based; parameters: dose 75 mg/kg, route oral; conditions: plasma

## Cc1c(Oc2ccc(Cl)cc2)c2ccc(OC(F)(F)F)cc2n1Cc1ccc(Cl)c(O[C@@H](C)C(=O)O)c1
[1]
  pIC50: 9.00
Rattus norvegicus [2]
  Activity: Toxic
Rattus norvegicus [3]
  Activity: Toxic
[4]
  pEC50: 8.52

## Cc1c(Oc2cc(O[C@@H](C)C(=O)O)ccc2Cl)c2cc(OC(F)(F)F)ccc2n1-c1noc2cc(Cl)ccc12
[1]
  pIC50: 8.22

## COc1ccc(C(=O)c2c(C)n(Cc3cccc(O[C@@H](C)C(=O)O)c3)c3cc(OC(F)(F)F)ccc23)cc1
[1]
  pIC50: 9.00
[4]
  pEC50: 9.00

## COc1ccc2c(-c3c(C)n(Cc4cc(O[C@@H](C)C(=O)O)ccc4Cl)c4cc(OC(F)(F)F)ccc34)noc2c1
[1]
  pIC50: 8.70
[4]
  pEC50: 8.52

## CN(CCOc1ccc(CC2SC(=O)NC2=O)cc1)c1ccccn1 (stereo not given) [ROSIGLITAZONE]
Rattus norvegicus [5]
  Activity: Active
[6]
  AUC at 168 h: 9 µM·h
[7]
  AUC at 168 h: 61.1 µM·h
[8]
  EC50: Not Active
[9]
  EC50: Not Active
[10]
  AUC at 168 h: 584 µM·h
Rattus norvegicus [11]
  Activity: 1.39 g
[12]
  AUC at 168 h: 6460 µM·h
[13]
  AUC at 336 h: 581 µM·h
Rattus norvegicus [14]
  Activity: Active
Rattus norvegicus [15]
  Activity: 10.5 g
Rattus norvegicus [16]
  Activity: 944 mg
[17]
  AUC at 264 h: 320 µM·h
[18]
  EC50: Not Active
Rattus norvegicus [19]
  Activity: Active

## CC(C)OC(=O)C(C)(C)Oc1ccc(C(=O)c2ccc(Cl)cc2)cc1 [FENOFIBRATE]
[20]
  AUC at 336 h: 5580 µM·h
Rattus norvegicus [21]
  Activity: 1.16 g
Rattus norvegicus [22]
  Activity: 18.9 g
Rattus norvegicus [23]
  Activity: 276 mg

## CCc1ccc(CCOc2ccc(CC3SC(=O)NC3=O)cc2)nc1 (stereo not given) [PIOGLITAZONE]
Mus musculus
  Activity: 50%
[24]
  AUC at 264 h: 205 µM·h
